Source: US20160083391A1, “TRICYCLIC PIPERAZINE DERIVATIVE” (Sunovion Pharmaceuticals Inc., priority 2014, published 2016)

Test system: PDE1
Assay: In vitro HTRF PDE1 inhibition assay
Format: biochemical
Conditions: HTRF cGMP assay, 100 nM cyclic GMP, PDE (1A3, 1B or 1C) with calmodulin, 45 minutes at 37° C.; isoform of the tabulated values not stated
How it was run: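 Activities are given as IC50 bands (<1, 1-10, >10 μM) derived from a 665/615 nm time-resolved FRET readout after d2-cGMP/anti-cGMP cryptate detection. Enzymes PDE1A3, 1B or 1C plus calmodulin were incubated 45 min at 37 °C with 100 nM cGMP, 1% DMSO, CaCl2/MgCl2 Tris buffer pH 7.4.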

| IC50 [µM] | SMILES |
| --- | --- |
| < 1 | CCOc1cccc(N2CCn3c(nc4c(cnn4C(C)C)c3=O)C2)c1 [Compound I-141, 8-(3-Ethoxyphenyl)-1-isopropyl-6,7,8,9-tetrahydropyrazino[1,2-a]pyrazolo[3,4-d]pyrimidin-4(1H)-one] |
| > 10 | CC(C)c1nn(C)c2c(=O)n3c(nc12)C(Cc1ccccc1)NCC3 (racemic) [Compound I-15, (±)-5-Benzyl-3-isopropyl-1-methyl-5,6,7,8-tetrahydropyrazino[1,2-a]pyrazolo[4,3-d]pyrimidin-10(1H)-one] |
| 1 to 10 | Cc1cnc(CN2CCn3c(nn4c(C5CCCC5)ncc4c3=O)C2)nc1 [Compound I-201] |
| > 10 | CC(C)n1ncc2c(=O)n3c(nc21)CN(Cc1ccc(F)cc1)CC3 [Compound I-138, 8-(4-Fluorobenzyl)-1-isopropyl-6,7,8,9-tetrahydropyrazino[1,2-a]pyrazolo[3,4-d]pyrimidin-4(1H)-one] |
| 1 to 10 | COc1ccc(C(C)N2CCn3c(nc4c(cnn4C4CCCC4)c3=O)C2)cc1 (racemic) [Compound I-114, (±)-1-Cyclopentyl-8-(1-(4-methoxyphenyl)ethyl)-6,7,8,9-tetrahydropyrazino[1,2-a]pyrazolo[3,4-d]pyrimidin-4(1H)-one] |
| > 10 | CC(C)c1nn(C)c2c(=O)n3c(nc12)CN(C)CC3 [Compound I-40, 3-Isopropyl-1,6-dimethyl-5,6,7,8-tetrahydropyrazino[1,2-a]pyrazolo[4,3-d]pyrimidin-10(1H)-one] |
| 1 to 10 | COc1ccc(CN2CCn3c(nc4c(cnn4C4CCCC4)c3=O)C2C)cc1 (racemic) [Compound I-118, (±)-1-Cyclopentyl-8-(4-methoxybenzyl)-9-methyl-6,7,8,9-tetrahydropyrazino[1,2-a]pyrazolo[3,4-d]pyrimidin-4(1H)-one] |
| > 10 | Cn1ncc2c(=O)n3c(nc21)C(Cc1ccccc1)NCC3 (racemic) [Compound I-7, (±)-9-Benzyl-1-methyl-6,7,8,9-tetrahydropyrazino[1,2-a]pyrazolo[3,4-d]pyrimidin-4(1H)-one] |
| 1 to 10 | O=c1c2[nH]nc(C3CCCC3)c2nc2n1CCN(Cc1ccc(Cl)cc1)C2 [Compound I-124, 6-(4-Chlorobenzyl)-3-cyclopentyl-5,6,7,8-tetrahydropyrazino[1,2-a]pyrazolo[4,3-d]pyrimidin-10(1H)-one] |
| < 1 | CC(C)n1ncc2c(=O)n3c(nc21)CN(c1ccncc1)CC3 [Compound I-145, 1-Isopropyl-8-(pyridin-4-yl)-6,7,8,9-tetrahydropyrazino[1,2-a]pyrazolo[3,4-d]pyrimidin-4(1H)-one] |
| > 10 | CC1Cn2c(nc3c(cnn3C(C)C)c2=O)CN1C (racemic) [Compound I-104, (±)-1-Isopropyl-7,8-dimethyl-6,7,8,9-tetrahydropyrazino[1,2-a]pyrazolo[3,4-d]pyrimidin-4(1H)-one] |
| > 10 | CC1c2nc3c(cnn3C)c(=O)n2CCN1Cc1ccccc1 (racemic) [Compound I-31, (±)-8-Benzyl-1,9-dimethyl-6,7,8,9-tetrahydropyrazino[1,2-a]pyrazolo[3,4-d]pyrimidin-4(1H)-one] |
| < 1 | O=c1c2cnc(C3CCCC3)n2nc2n1CCN(Cc1cnccn1)C2 [Compound I-205, 3-Cyclopentyl-7-(pyrazin-2-ylmethyl)-8,9-dihydro-6H-imidazo[5,1-f]pyrazino[2,1-c][1,2,4]triazin-11(7H)-one] |
| > 10 | CC(C)c1n[nH]c2c(=O)n3c(nc12)C(C)N(C)CC3 (racemic) [Compound I-38, (±)-3-Isopropyl-5,6-dimethyl-5,6,7,8-tetrahydropyrazino[1,2-a]pyrazolo[4,3-d]pyrimidin-10(1H)-one] |
| 1 to 10 | CCCn1ncc2c(=O)n3c(nc21)CN(Cc1ccc(Cl)cc1)CC3 [Compound I-253, 8-(4-Chlorobenzyl)-1-propyl-6,7,8,9-tetrahydropyrazino[1,2-a]pyrazolo[3,4-d]pyrimidin-4(1H)-one] |
